# Laboratory results from patent US20230220331A1, “TEMPORARY TREATMENT MEDIUM, TREATMENT KIT, EMBRYOGENESIS ARREST INHIBITOR, EMBRYOGENESIS ARREST INHIBITORY METHOD, DEVELOPMENTAL ENGINEERING PRODUCT PREPARATION METHOD, TRANSPLANTATION METHOD, THERAPEUTIC METHOD, AND DEVELOPMENTAL ENGINEERING PRODUCT” (priority 2020, published 2023).
# Test system: frozen embryos of C57BL/6J
# Experiment: Recovery of re-frozen and re-thawed blastocysts, cytochalasin B vs Y-27632 (Treatment Example 10)
# Type: cell-based, mouse
# Conditions: for RECOVERY RATE about 3 hours later / RECOVERY RATE about 24 hours later / RECOVERY RATE immediately after thawing / number of embryos ABOUT 3 HOURS LATER / number of embryos ABOUT 24 HOURS LATER / number of embryos IMMEDIATELY AFTER THAWING: 19 embryos
# Description: In this treatment example, as in the above-mentioned treatment example 9, the normal medium (hereinafter, referred to as “Y− medium” as in the treatment example 9), the temporary treatment medium to which Y-27632 is added (hereinafter, referred to as “Y+ medium” as in the treatment example 9), and a CB-added medium (hereinafter, referred to as “CB+ medium”) were used. The concentrations of CB in the CB+ medium were 5 μM and 10 μM are prepared. As the manipulation, the recovery rates when frozen embryos were thawed and developed, then re-frozen in blastocysts and re-thawed were compared.
# For the treatment, 107 frozen embryos of C57BL/6J (provided from CLEA Japan, Inc.) at the 2-cell stage were used. Firstly, the frozen embryos at the 2-cell stage were thawed and blastocysts were developed as they were in a normal medium.
# Then, the blastocysts were then transferred to each of the above media and placed for 30 minutes. Then, the embryos were transferred to Y− medium again and placed for 30 minutes.
# Then, each embryo was frozen.
# Then, the embryos were then thawed and placed in M2 medium for 10 minutes.
# Then, each embryo was evenly divided and placed on the medium for 1 hour.
# The embryos were observed by returning to the Y− medium again. This observation was performed immediately after thawing, 3 hours later, and 24 hours later.
structure (smiles),measurement,setting,value
"C=C1[C@@H](C)[C@H]2[C@H](Cc3ccccc3)NC(=O)[C@]23OC(=O)/C=C/[C@H](O)CCC[C@@H](C)C/C=C/[C@H]3[C@@H]1O [CB+ mWM, 2H-Oxacyclotetradecino[2,3-d]isoindole-2,18(5H)-dione, 6,7,8,9,10,12a,13,14,15,15a,16,17-dodecahydro-5,13-dihydroxy-9,15-dimethyl-14-methyl ene-16-(phenylmethyl)-, (3E,5R,9R,11E,12aS,13S,15S,15aS,16S,18aS)-]",RECOVERY RATE about 3 hours later,5 μM in mWM,94%
same,RECOVERY RATE about 24 hours later,5 μM in mWM,78%
same,RECOVERY RATE immediately after thawing,5 μM in mWM,26%
same,number of embryos ABOUT 3 HOURS LATER,5 μM in mWM,18
same,number of embryos ABOUT 24 HOURS LATER,5 μM in mWM,15
same,number of embryos IMMEDIATELY AFTER THAWING,5 μM in mWM,5
same,RECOVERY RATE about 3 hours later,10 μM in mWM,52%
same,RECOVERY RATE about 24 hours later,10 μM in mWM,63%
same,RECOVERY RATE immediately after thawing,10 μM in mWM,10%
same,number of embryos ABOUT 3 HOURS LATER,10 μM in mWM,10
same,number of embryos ABOUT 24 HOURS LATER,10 μM in mWM,12
same,number of embryos IMMEDIATELY AFTER THAWING,10 μM in mWM,2
same,recovery rate of 5 μM higher than that of 10 μM,after 24 hours,15%
